# Experimental data as given in patent publication US20110245192A1, “NEW ACTIVATORS FOR TREATING AND/OR PREVENTING DISEASES OR MEDICAL CONDITIONS WHICH BENEFIT FROM AN INCREASED TRANSPORT OF HYALURONAN ACROSS A LIPID BILAYER” (priority 2008, published 2011).
# System: hyaluronan transport/export in fibroblasts
# Assay: Assay for hyaluronan transport/export activators in fibroblast cell culture (hyaluronan in culture medium by ELISA)
# Assay type: cell-based
# Conditions: 2 days at 37° C.
# Method: Compound 89 activates 4,7fold, while compound 101 activates 2,4fold. The “activatory capability” as described herein is expressed as the ratio of hyaluronan exported in the presence and absence of the compound. Methods to determine the hyaluronan transport are disclosed herein, and are also disclosed in great detail in WO2005/013947.
# Trypsinised fibroblasts were suspended in Dulbeccos medium at 10^5 cells/ml and 100 μl aliquots were transferred to a 96 well microtiter plate. The first row received 200 μl of the suspension and 20 μl of the activators of the invention dissolved in phosphate buffered saline at concentrations of 4 mM. A serial dilution of the activators was established by transfer of 100 μl aliquots from the first row to the following rows. All experiments were performed in duplicates. […] The cells were incubated for 2 days at 37° C. and aliquots (5 and 20 μl) of the culture medium were used for measurement of the hyaluronan concentration in the cell culture medium by an ELISA [125]. […] The adsorption was read at 490 nm. The concentrations in the samples were calculated from a logarithmic regression curve of the hyaluronan standard solutions. […]
smiles,measurement,value
CC(=O)Nc1c(O)cc(O)cc1Oc1ccc(N)cc1C(=O)O [Compound 89],activatory capability: ratio of hyaluronan exported in the presence and absence of the compound,"4,7 fold"
CC(=O)Nc1c(O)cccc1Oc1ccc(N)cc1C(=O)O [Compound 101],activatory capability: ratio of hyaluronan exported in the presence and absence of the compound,"2,4 fold"
